Data on five compounds can be found in US4322545A, “Benzoic acid esters” (priority 1981, dated 1982).

Data set [1] is described as follows: Ease of emulsification, water content of oil phase by Karl Fisher. The data set is classed as physicochemical. To be noted: 20 ml toluene + 20 ml test solvent + 20 ml water, 40° C., 15 minutes. The protocol: In this Example, the emulsifying properties of the compositions of the invention were compared to various commonly used solvents and to mixes of benzoates.
Tests were conducted by adding exactly 20 ml of toluene to 20 ml of the test solvent in a glass stoppered cylinder and shaking to mix. When mixed, 20 ml of water was then added, the resulting mixture warmed to 40° C. and shaken 30 times.

Data set [2] deals with rats. To be noted: Example 13; no source given; cited from earlier work.
Data set [3] is described as follows: Spreading Coefficient and interfacial tension against water. The data set is classed as physicochemical. The source says: The higher the Spreading Coefficient, the greater the spreadability.
The subject of data set [4] is skin. Conditions: in vivo; cited from earlier work.
Data set [5] in a line: Greasiness comparison on skin. To be noted: 70°-73°F. The source says: A comparison of the composition of the present invention was undertaken with a single benzoate ester falling within the carbon chain length range encompassed in the mixtures of the invention. […] This ester product is the benzoic acid ester of a mixture of C12, C13, C14 and C15 alcohols corresponding to that contained in the NEODOL 25 alcohol.

Data set [6] can be described thus: Gel formation/settling with suspending agents. The data set is classed as physicochemical.
Description: Gel formation refers to the ability of an emollient oil to form gels with suspending agents such as quaternized hectorite (such as Bentone 38) or stearalkonium (Bentone 37).
The viscosity of a gel is dependent on the polarity of the organic liquid it is suspended in. The more polar the liquid, the lower the viscosity. Non-polar or low polarity organic liquids result in higher viscosities. Completely non-polar liquids may present a problem in that too high viscosities results in a low percentage of a gellant. Upon further dilution (as normally occurs in formulation work), the ability to suspend matter can be lost in these instances.
Desirably, basic gel cocentrates and formulation containing same, should show stability to a wide range of temperatures without phase separation--which would destroy the gel viscosity and suspending capabilities. In addition, the basic function of such gels is to suspend an active material present in a formulation as a particulate matter. In a system such as aerosol antiperspirants, the active is aluminum chlorhydrate present as insoluble particulates, with a particle size ranging from submicron to about 50 microns. Before use, the container is shaken to re-dispense the particulates in suspension as to provide the proper dosage of activities. Re-dispersion should be immediate, complete, and last for a period of time sufficient for proper application. […]
The nature of data set [7]: Cloud point and pour point. The data set is classed as physicochemical. The protocol:
"Cloud point", refers to the temperature at which a waxy solid material appears as the liquid composition being examined is cooled. Cloud points are also associated with pour points, which is the lowest temperature at which a liquid will flow when a container is inverted. In all cases as the temperature is lowered, the cloud point is detected first, with the pour point being generally 5°-25° F. lower.

Regarding Octyl Isononanoate, the “% Water in Oil Phase (upper layer; by K-F Method)” value in data set [1] was 0.26%.
Still for that read-out and setting: the figure for `CCCCCCCCCCCCCCCC(=O)OC(C)C` [IPP (isopropyl palmitate), isopropyl palmitate] is 0.66%.
As for `CCCCOC(=O)c1ccccc1` [butyl benzoate], the “LD50 (comparison ester)” value in data set [2] was 3.5 g/kg of body weight.
As for `CCCCCCCCCCCCCC(=O)OC(C)C` [IPM (isopropyl myristate), isopropyl myristate], the “% Water in Oil Phase (upper layer; by K-F Method)” value in data set [1] is recorded as 0.12%. In addition, the “Spreading Coefficient” value in data set [3] is 17.7 dynes/cm. The “interfacial tension against water” value in data set [3] (25° C.) came out at 17. dynes/cm. Moreover, the Skin irritation result in data set [4] is “suspect as an irritant”.
In the case of `CCCCCCCCCCCCCCOC(=O)c1ccccc1` [Myristyl benzoate, myristyl (C14) benzoate], the “Physical state at ambient room temperature” value in data set [5] is recorded as “virtually a solid”. Moreover, the Settling time in data set [6] was 60 to 90 s. For the same compound, the Gel viscosity result in data set [6] (used as the organic liquid for the gel) is “abnormally high viscosities”. Further, in data set [7], the Cloud point was found to be 21 °C.
